Data on 23 compounds can be found in ChEMBL document CHEMBL5149980, “The Alpha Keto Amide Moiety as a Privileged Motif in Medicinal Chemistry: Current Insights and Emerging Opportunities” (J Med Chem, 2021).

pEC50, pIC50, pKi: −log10 of the molar value. ≈ marks a conversion by molar mass, not a printed value.

For assay [1], the target named is Translocator protein (Rattus norvegicus, UniProt P16257). Put plainly: Displacement of [3H]-PK11195 from rat kidney mitochondrial membrane TSPO receptor assessed as inhibition constant. The assay is classed as cell membranes.
Sequence of Translocator protein (Rattus norvegicus, UniProt P16257) (P16257 whole entry, looked up): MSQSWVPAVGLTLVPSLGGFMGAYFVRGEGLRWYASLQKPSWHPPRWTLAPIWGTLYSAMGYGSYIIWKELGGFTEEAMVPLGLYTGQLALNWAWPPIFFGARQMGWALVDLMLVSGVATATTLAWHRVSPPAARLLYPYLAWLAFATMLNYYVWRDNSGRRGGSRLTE
Assay [2] concerns the target Translocator protein (Rattus norvegicus) (UniProt P16257). In words: Activation of TSPO in rat C6 glioma cells assessed as increase in pregnenolone incubated for 2 hrs by radioimmuno assay. On the set-up: concentration or dose not given beside the values. The following applies: filed as activator. The assay is classed as cell-based.
Assay [3] concerns Staphylococcus aureus. In words: Antibacterial activity against Staphylococcus aureus assessed as bacterial growth inhibition incubated for 24 hrs by microplate reader analysis. The assay is classed as functional.
Assay [4] concerns the target GABA-A receptor; alpha-5/beta-3/gamma-2 (Homo sapiens) (UniProt P18507+P28472+P31644). Put plainly: Inhibition of alpha5beta3gamma2 GABAA receptor (unknown origin) relative to control. The format is protein-complex assay.
The target in assay [5] is GABA-A receptor; alpha-1/beta-2/gamma-2 (Homo sapiens) (UniProt P14867+P47870+P18507). In words: Inhibition of alpha1beta2gamma2 GABAA receptor (unknown origin) relative to control. The assay is classed as protein-complex assay.
Assay [6] deals with GABA A receptor alpha-2/beta-2/gamma-2 (Homo sapiens) (UniProt P47870+P18507+P47869). In words: Inhibition of alpha2beta2gamma2 GABAA receptor (unknown origin) relative to control. The assay is classed as protein-complex assay.
The target in assay [7] is T1, Translocator protein (Homo sapiens, UniProt P30536). In words: Displacement of [3H] PK11195 from TSPO in human U-87 MGcell membrane assessed as inhibition constant. The format is cell membranes, U-87 MG. On the technique in general: In a radioligand displacement assay an active substance lowers the binding of a labelled ligand.
T1 sequence (P30536 whole entry): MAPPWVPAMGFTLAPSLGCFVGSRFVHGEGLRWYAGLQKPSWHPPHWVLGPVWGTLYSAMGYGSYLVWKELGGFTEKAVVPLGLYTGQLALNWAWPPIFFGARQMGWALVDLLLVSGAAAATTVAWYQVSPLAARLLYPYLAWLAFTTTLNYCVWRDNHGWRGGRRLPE
Assay [8] concerns Staphylococcus aureus. In words: Antibacterial activity against Staphylococcus aureus SA38 infected in MRC5 assessed as bacterial growth inhibition by alamar blue assay. The format is functional.
The target in assay [9] is Group IIE secretory phospholipase A2 (Homo sapiens, UniProt Q9NZK7). In words: Inhibition of human group IIE phospholipase A2 expressed in Escherichia coli BL21 cells incubated for 10 to 20 mins cells by radiometric assay.
Sequence of Group IIE secretory phospholipase A2 (Homo sapiens, UniProt Q9NZK7) (Q9NZK7 whole entry): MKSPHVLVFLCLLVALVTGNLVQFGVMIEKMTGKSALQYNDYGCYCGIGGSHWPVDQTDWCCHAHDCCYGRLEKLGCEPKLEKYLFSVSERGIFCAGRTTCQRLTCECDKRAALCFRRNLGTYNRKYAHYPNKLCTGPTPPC
Assay [10] has as its target Group 10 secretory phospholipase A2 (Homo sapiens, UniProt O15496). Put plainly: Inhibition of human group X phospholipase A2 incubated for 10 to 20 mins cells by radiometric assay.
Assay [11] has as its target Phospholipase A2 group V (Homo sapiens, UniProt P39877). Put plainly: Inhibition of human group V phospholipase A2 expressed in Escherichia coli BL21(DE3) cells incubated for 10 to 20 mins cells by radiometric assay.
Assay [12] addresses Group IIC secretory phospholipase A2 (Mus musculus, UniProt P48076). Put plainly: Inhibition of mouse group IIC phospholipase A2 incubated for 10 to 20 mins cells by radiometric assay.
Assay [13] has as its target T2, Phospholipase A2, membrane associated (Homo sapiens, UniProt P14555).
T2 sequence (P14555 whole entry): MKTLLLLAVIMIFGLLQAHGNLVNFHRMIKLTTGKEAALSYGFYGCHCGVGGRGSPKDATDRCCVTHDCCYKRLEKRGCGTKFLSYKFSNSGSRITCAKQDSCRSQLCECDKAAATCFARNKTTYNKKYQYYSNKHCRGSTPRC
In words: Inhibition of human group IIA phospholipase A2 incubated for 10 to 20 mins cells by radiometric assay.

For assay [14], the target named is Phospholipase A2 group V (Mus musculus, UniProt P97391). Put plainly: Inhibition of mouse group V phospholipase A2 incubated for 10 to 20 mins cells by radiometric assay.
Sequence of Phospholipase A2 group V (Mus musculus, UniProt P97391) (P97391 whole entry): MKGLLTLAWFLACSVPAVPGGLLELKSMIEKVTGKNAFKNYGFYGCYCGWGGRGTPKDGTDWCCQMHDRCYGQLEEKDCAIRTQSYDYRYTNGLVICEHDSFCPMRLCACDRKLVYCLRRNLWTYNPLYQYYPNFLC
Assay [15] has as its target Phospholipase A2 (Homo sapiens, UniProt P04054). In words: Inhibition of human group IB phospholipase A2 expressed in Escherichia coli BL21 cells incubated for 10 to 20 mins cells by radiometric assay.
The target of assay [16] is Group IIE secretory phospholipase A2 (Mus musculus, UniProt Q9QUL3). In words: Inhibition of mouse group IIE phospholipase A2 incubated for 10 to 20 mins cells by radiometric assay.
Sequence of Group IIE secretory phospholipase A2 (Mus musculus, UniProt Q9QUL3) (Q9QUL3 whole entry): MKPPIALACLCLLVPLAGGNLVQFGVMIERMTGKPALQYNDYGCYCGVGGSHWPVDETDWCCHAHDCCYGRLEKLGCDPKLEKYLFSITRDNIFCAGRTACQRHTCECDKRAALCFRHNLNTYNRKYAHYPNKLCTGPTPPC
The target of assay [17] is Group 10 secretory phospholipase A2 (Mus musculus, UniProt Q9QXX3). In words: Inhibition of mouse group X phospholipase A2 incubated for 10 to 20 mins cells by radiometric assay.
Sequence of Group 10 secretory phospholipase A2 (Mus musculus, UniProt Q9QXX3) (Q9QXX3 whole entry): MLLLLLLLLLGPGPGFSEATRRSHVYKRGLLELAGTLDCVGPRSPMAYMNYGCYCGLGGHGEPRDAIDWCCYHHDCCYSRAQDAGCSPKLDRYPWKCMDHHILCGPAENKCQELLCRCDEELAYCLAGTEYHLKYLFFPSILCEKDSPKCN
Assay [18] concerns the target Phospholipase A2, membrane associated (Mus musculus, UniProt P31482). In words: Inhibition of mouse group IIA phospholipase A2 incubated for 10 to 20 mins cells by radiometric assay.
Assay [19] addresses Phospholipase A2 (Mus musculus, UniProt Q9Z0Y2). Put plainly: Inhibition of mouse group IB phospholipase A2 incubated for 10 to 20 mins cells by radiometric assay.
The target of assay [20] is T2, Phospholipase A2, membrane associated. Put plainly: Inhibition of human group IIA phospholipase A2 preincubated with compound for 10 mins followed by enzyme addition and measured after 30 mins by PC/DOC assay.
Assay [21] is described as follows: Inhibition of SARS-CoV Main protease. Set-up: species or system Severe acute respiratory syndrome-related coronavirus.
Assay [22] in a line: Inhibition of MERS-CoV Main protease. Set-up: species or system Middle East respiratory syndrome-related coronavirus.
Assay [23] addresses T1, Translocator protein. Put plainly: Displacement of [3H] PK11195 from TSPO (unknown origin) assessed as inhibition constant.
A further assay has as its system SARS-CoV-2. In words: Antiviral activity against SARS-CoV-2 infected in human Calu-3 cells. The format is functional, organism-based. The following applies: Severe acute respiratory syndrome coronavirus 2, Calu-3.
Assay [24] has as its target Calpain-1 catalytic subunit (Homo sapiens, UniProt P07384). Put plainly: Inhibition of human Calpain I assessed as dissociation constant using Suc-Leu-Tyr-AMC as substrate preincubated for 15 mins followed by compound addition and measured after 40 mins by […].
For a further assay, the target named is Cathepsin S (Homo sapiens, UniProt P25774). In words: Inhibition of human Cathepsin S assessed as inhibition constant.
Sequence of Cathepsin S (P25774 whole entry): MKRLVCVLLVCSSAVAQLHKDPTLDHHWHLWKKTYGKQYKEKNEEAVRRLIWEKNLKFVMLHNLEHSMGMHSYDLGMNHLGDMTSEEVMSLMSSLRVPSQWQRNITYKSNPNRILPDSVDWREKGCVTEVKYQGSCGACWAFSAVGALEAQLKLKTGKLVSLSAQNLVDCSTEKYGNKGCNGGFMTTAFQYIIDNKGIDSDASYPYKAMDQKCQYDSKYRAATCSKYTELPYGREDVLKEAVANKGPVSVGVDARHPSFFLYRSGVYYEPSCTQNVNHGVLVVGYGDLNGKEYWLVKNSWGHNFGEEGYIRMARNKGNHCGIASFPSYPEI
The next assay concerns the target Procathepsin L (Homo sapiens, UniProt P07711). Put plainly: Inhibition of human Cathepsin L assessed as inhibition constant.
Assay [25] deals with Dipeptidyl peptidase 1 (Homo sapiens) (UniProt P53634). Put plainly: Inhibition of human Cathepsin C assessed as inhibition constant at 10 uM relative to control.
Sequence of Dipeptidyl peptidase 1 (Homo sapiens) (P53634 25-134 limits assumed): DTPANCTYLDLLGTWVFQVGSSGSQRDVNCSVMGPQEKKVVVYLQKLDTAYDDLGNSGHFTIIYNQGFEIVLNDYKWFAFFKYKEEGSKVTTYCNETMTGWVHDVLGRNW
Sequence of Dipeptidyl peptidase 1 (Homo sapiens) (P53634 231-394 limits assumed): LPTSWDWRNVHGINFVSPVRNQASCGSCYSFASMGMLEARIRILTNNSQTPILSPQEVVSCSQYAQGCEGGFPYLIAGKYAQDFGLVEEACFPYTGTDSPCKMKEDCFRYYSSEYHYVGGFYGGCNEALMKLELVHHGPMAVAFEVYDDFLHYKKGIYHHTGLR
Sequence of Dipeptidyl peptidase 1 (Homo sapiens) (P53634 395-463 limits assumed): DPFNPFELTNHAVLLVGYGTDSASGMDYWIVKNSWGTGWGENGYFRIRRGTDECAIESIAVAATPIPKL
Another assay addresses Cathepsin K (Homo sapiens, UniProt P43235). In words: Inhibition of human Cathepsin K assessed as inhibition constant.
The target in a further assay is Cathepsin B (Homo sapiens, UniProt P07858). In words: Inhibition of human Cathepsin B assessed as inhibition constant.
A further assay is filed under the species Homo sapiens. In words: Inhibition of human Cathepsin H assessed as inhibition constant at 10 uM relative to control.
Assay [26] concerns the target T2, Phospholipase A2, membrane associated. In words: Inhibition of human group IIA phospholipase A2 incubated for 30 mins by automatic plate reader analysis.
Assay [27] addresses Replicase polyprotein 1ab (Severe acute respiratory syndrome coronavirus 2, UniProt P0DTD1). Put plainly: Inhibition of SARS-Cov-2 Main protease.
The next assay relates to Pseudomonas aeruginosa. Put plainly: Inhibition of quorum sensing system in Pseudomonas aeruginosa MH602 assessed as GFP level incubated for 15 hrs at 250 uM by microplate titre analysis relative to control. The format is functional.
For assay [28], the system named is Escherichia coli. In words: Inhibition of quorum sensing system in Escherichia coli MT102 assessed as GFP level incubated for 22 hrs at 250 uM by microplate titre analysis relative to control. The format is functional.
Assay [29] relates to Escherichia coli. Put plainly: Antibacterial activity against Escherichia coli assessed as bacterial growth inhibition by microdilution analysis. The format is functional.
A further assay has as its system Bacillus cereus. Put plainly: Antibacterial activity against Bacillus cereus assessed as bacterial growth inhibition by microdilution analysis. The format is functional. For orientation: Dilution methods test growth across graded concentrations, often in twofold steps.
The test system of the next assay is Pseudomonas putida. Put plainly: Antibacterial activity against Pseudomonas putida assessed as bacterial growth inhibition by microdilution analysis. The assay is classed as functional.
In assay [30] the test system is Staphylococcus aureus. Put plainly: Antibacterial activity against Staphylococcus aureus assessed as bacterial growth inhibition by microdilution analysis. The format is functional.

Sequence of Translocator protein (Rattus norvegicus) (P16257 whole entry, looked up): as the sequence (P16257 whole entry, looked up) above
Sequence of Phospholipase A2 (Homo sapiens, UniProt P04054) (P04054 whole entry): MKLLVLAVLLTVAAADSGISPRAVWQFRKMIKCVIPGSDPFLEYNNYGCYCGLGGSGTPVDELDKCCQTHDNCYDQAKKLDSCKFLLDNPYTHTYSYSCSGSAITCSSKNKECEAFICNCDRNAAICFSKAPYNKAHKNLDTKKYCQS
Sequence of Cathepsin K (P43235 whole entry): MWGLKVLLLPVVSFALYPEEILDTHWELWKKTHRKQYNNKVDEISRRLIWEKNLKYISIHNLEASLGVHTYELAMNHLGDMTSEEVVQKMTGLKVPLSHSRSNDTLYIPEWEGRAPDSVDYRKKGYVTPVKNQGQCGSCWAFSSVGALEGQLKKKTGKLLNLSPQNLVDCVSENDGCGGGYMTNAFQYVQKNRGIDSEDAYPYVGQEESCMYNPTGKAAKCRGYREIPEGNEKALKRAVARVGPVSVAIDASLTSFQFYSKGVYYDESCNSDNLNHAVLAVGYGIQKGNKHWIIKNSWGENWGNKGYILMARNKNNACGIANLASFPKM
Sequence of Group 10 secretory phospholipase A2 (Homo sapiens, UniProt O15496) (O15496 whole entry): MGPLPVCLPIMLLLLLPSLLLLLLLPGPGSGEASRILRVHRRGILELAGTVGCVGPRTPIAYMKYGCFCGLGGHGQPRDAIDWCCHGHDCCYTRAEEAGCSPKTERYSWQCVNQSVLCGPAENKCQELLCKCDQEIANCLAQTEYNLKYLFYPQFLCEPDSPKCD
Sequence of Phospholipase A2 (Mus musculus, UniProt Q9Z0Y2) (Q9Z0Y2 whole entry): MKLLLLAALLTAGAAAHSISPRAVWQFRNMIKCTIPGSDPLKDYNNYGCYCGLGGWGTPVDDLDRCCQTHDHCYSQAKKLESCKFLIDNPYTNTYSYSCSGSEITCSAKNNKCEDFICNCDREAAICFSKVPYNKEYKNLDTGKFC
Sequence of Calpain-1 catalytic subunit (P07384 whole entry): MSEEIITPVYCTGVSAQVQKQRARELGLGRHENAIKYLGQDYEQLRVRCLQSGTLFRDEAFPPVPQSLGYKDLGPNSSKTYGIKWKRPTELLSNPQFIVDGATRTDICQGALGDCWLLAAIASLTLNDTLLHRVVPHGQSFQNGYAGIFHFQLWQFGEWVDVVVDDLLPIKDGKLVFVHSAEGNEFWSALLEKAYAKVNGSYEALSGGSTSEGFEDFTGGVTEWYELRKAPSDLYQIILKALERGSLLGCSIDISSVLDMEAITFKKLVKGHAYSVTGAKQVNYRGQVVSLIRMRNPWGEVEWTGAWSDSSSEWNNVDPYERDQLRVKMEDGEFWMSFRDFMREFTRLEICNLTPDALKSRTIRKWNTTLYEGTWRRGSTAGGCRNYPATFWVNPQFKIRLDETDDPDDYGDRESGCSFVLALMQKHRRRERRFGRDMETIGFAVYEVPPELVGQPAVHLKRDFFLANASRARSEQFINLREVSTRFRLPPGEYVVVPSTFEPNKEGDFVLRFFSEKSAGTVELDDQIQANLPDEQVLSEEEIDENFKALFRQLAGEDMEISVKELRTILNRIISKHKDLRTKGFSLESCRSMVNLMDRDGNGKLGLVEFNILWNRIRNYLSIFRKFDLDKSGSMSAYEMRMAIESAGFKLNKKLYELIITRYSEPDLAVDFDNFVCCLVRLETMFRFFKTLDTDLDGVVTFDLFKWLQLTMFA
Sequence of Phospholipase A2, membrane associated (Mus musculus, UniProt P31482) (P31482 whole entry): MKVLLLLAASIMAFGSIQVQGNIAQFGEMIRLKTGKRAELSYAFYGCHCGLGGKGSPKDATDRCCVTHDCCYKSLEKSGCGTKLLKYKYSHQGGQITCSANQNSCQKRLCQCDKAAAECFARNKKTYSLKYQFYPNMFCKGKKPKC
Sequence of Phospholipase A2 group V (Homo sapiens, UniProt P39877) (P39877 whole entry): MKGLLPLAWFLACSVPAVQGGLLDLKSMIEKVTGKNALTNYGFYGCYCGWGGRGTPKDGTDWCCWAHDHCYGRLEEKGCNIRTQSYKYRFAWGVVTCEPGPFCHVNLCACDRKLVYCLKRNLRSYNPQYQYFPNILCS
Sequence of Procathepsin L (P07711 whole entry): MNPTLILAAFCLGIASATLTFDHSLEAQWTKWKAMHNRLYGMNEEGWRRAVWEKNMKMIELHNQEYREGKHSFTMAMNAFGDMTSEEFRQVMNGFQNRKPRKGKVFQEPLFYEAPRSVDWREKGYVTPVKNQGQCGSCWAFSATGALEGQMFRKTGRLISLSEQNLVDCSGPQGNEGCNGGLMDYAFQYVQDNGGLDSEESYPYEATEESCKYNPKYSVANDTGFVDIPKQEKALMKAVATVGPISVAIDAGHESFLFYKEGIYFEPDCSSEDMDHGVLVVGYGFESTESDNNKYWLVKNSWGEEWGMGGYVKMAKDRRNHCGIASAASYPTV
Sequence of Group IIC secretory phospholipase A2 (P48076 whole entry): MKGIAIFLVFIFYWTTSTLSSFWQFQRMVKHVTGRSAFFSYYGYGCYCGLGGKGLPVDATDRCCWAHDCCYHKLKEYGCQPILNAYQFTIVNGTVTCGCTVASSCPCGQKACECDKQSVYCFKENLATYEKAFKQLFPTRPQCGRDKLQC

Take `CCCN(CCC)C(=O)C(=O)c1c(-c2ccccc2)[nH]c2ccc(C)cc12`: at Translocator protein [1], the pKi (usually the negative decadic logarithm of the Ki, by convention in mol/L) was 8.26. Further, the Activity in [2] came to 148%.

Take `C[N+](C)(C)CCCNC(=O)C(=O)c1cc(Br)ccc1NC(=O)c1ccc2ccccc2c1.[I-]`: in the assay with Staphylococcus aureus [3], the minimum inhibitory concentration (MIC) (as a rule, the lowest concentration found to suppress growth) turned out to be 39 µg/mL.

Turning to `O=C(NCc1ccccc1)C(=O)c1c[nH]c2ccc([N+](=O)[O-])cc12`, the inhibition – broadly, the relative decrease from the control value, in per cent – in [4] was 44%; in assay [5], 65%; in assay [6] it was 32%.

With `CCOC(=O)[C@@H](Cc1ccccc1)NC(=O)[C@H](CC(C)C)NC(=O)C(=O)c1c(-c2ccccc2)[nH]c2ccc(N=C=S)cc12`, the pKi on Translocator protein [7] was 6.97.

For the compound `CCCCCCCCCS(=O)(=O)Nc1ccc(Br)cc1C(=O)C(=O)NCCCNC(=N)N`, the MIC in the assay with Staphylococcus aureus [8] is 12 µM (≈ 6.39 µg/mL).

Regarding `Cc1c(C(=O)C(N)=O)c2c(OCC(=O)O)cccn2c1Cc1ccccc1-c1ccccc1`, the pIC50 (commonly the IC50 on a negative log10 scale, so that one unit is a factor of ten) in [9] was 8.00; in assay [10], 7.00; at Phospholipase A2 group V [11], 8.00; in assay [12], 8.00; in assay [13], 8.00; at Phospholipase A2 group V [14] it was 8.00. Also, the pIC50 is 7.00 on Phospholipase A2 [15]; 8.00 in [16]; 7.00 in [17]; 8.00 in assay [18]; 7.00 at Phospholipase A2 [19]; 8.85 in [20].

Take `CCCCN(CCCC)C(=O)C(=O)c1c(-c2ccc(Cl)cc2)[nH]c2ccc(Cl)cc12`: the Activity in [2] came out at 147%.

`CC(C)(C)OC(=O)Nc1cccn([C@@H](CC2CC2)C(=O)N[C@@H](C[C@@H]2CCNC2=O)C(=O)C(=O)NCc2ccccc2)c1=O`: the pIC50 in assay [21] was 6.05; in assay [22], 6.24.

In the case of `CC(C)C[C@H](NC(=O)C(=O)c1c(-c2ccccc2)[nH]c2ccccc12)C(=O)N[C@H](Cc1ccccc1)C(=O)O`, the pKi at Translocator protein [23] was 6.69.

For `Nc1cccn([C@@H](CC2CC2)C(=O)N[C@@H](C[C@@H]2CCNC2=O)C(=O)C(=O)NCc2ccccc2)c1=O`, the pEC50 (usually −log10 of the EC50, conventionally taken in molar units) in the assay with SARS-CoV-2 is 5.40.

With `CCN(CC)c1ccc(/C=C/c2ccccc2C(=O)NC(Cc2ccccc2)C(=O)C(N)=O)cc1` (stereo not given), the pKi in assay [24] is 7.25; on Cathepsin S, 5.48; on Procathepsin L it was 6.86; at Cathepsin K it was 8.74; on Cathepsin B it was 7.55. The inhibition in assay [25] was 94%; in the assay filed under Homo sapiens, 84%.

Turning to `CCc1c(CC(N)=O)c2c(OCC(=O)O)cccn2c1Cc1cccc2ccccc12`, the pIC50 in assay [26] is 7.52; in assay [20], 8.30.

In turn, `CCc1c(C(=O)C(=O)NC)c2c(OCC(=O)O)cccn2c1Cc1ccccc1` showed a negative-log IC50 (pIC50) in assay [26] of less than 4.30.

The compound `CC(C)(C)OC(=O)Nc1cccn([C@@H](CC2CCCCC2)C(=O)N[C@@H](C[C@@H]2CCNC2=O)C(=O)C(=O)NCc2ccccc2)c1=O` gave a pIC50 in assay [27] of 5.62.

Take `CCC(C)N(C)C(=O)c1cc2ccccc2c(-c2ccccc2Cl)n1` (stereo not given): in assay [2], the Activity worked out at 48%.

With `C[N+](C)(C)CCCNC(=O)C(=O)c1cc(Br)ccc1NC(=O)c1ccc2ccccc2c1.[Cl-]`, the MIC with Staphylococcus aureus [3] is 16 µg/mL.

As to `CCOC(=O)[C@@H](Cc1ccccc1)NC(=O)[C@H](CC(C)C)NC(=O)C(=O)c1c(-c2ccccc2)[nH]c2ccccc12`, on Translocator protein [23], the pKi was 6.36.

As to `CCCCCCN(CCCCCC)C(=O)C(=O)c1c(-c2ccc(Cl)cc2)[nH]c2ccc(Cl)cc12`, in assay [2], the Activity is 166%.

For `Cc1c(C(=O)C(N)=O)c2c(OCn3cnnn3)cccn2c1Cc1ccccc1-c1ccccc1`, the pIC50 in assay [26] and in [20] was 8.15 in each case.

In the case of `CCc1c(C(=O)C(N)=O)c2c(OCC(O)CC)cccn2c1Cc1cccc(Cl)c1` (stereo not given), in assay [26], the negative logarithm of the IC50 (pIC50) is 4.72.

`CCOC(=O)CNC(=O)C(=O)c1ccccc1Nc1ccc([N+](=O)[O-])cc1[N+](=O)[O-]`: the results for the inhibition in the assay with Pseudomonas aeruginosa and in the assay on Escherichia coli [28] were 48.7% and 73.6%, respectively.

Consider `CN1C(=O)CN=C(c2ccc(Cl)cc2)c2cc(Cl)ccc21`, for which the Activity in assay [2] worked out at 41%.

Consider `O=C(Nc1ccc(F)cc1)C(=O)c1ccc2c(c1)c1ccccc1n2Cc1ccc(Cl)cc1`, for which the minimum inhibitory concentration (MIC) with Escherichia coli [29] was 8 µg/mL; in the assay on Bacillus cereus, 16 µg/mL; in the assay on Pseudomonas putida, 16 µg/mL; in the assay with Staphylococcus aureus [30], greater than 8 µg/mL.
